Columns and labels:
Format in all cases: cell-based
[1] = biological target: human EGFR exon 20 insertion NPG (H773_V774insNPG) (Homo sapiens, UniProt P00533, INS773NPG, cells depend on it); experiment: Ba/F3-EGFR-Exon20-NPG cell anti-proliferative assay (CellTiter 96 MTS, 72 h); settings: read-out: EGFR exon 20 NPG insertion IC50
Experimental: Ba/F3 cells expressing EGFR exon 20 insertions (named Ba/F3-EGFR-Exon20-NPG or Ba/F3-EGFR-Exon20-ASV) can proliferate in the absence of IL-3. The anti-proliferative activity of compounds were determined as follows: BaF3-EGFR-Exon20 cells (NPG or ASV) seeded in 96 well plates (2500 cells/well) were treated with test compound (dissolved in DMSO) at a series of concentrations (4-fold dilution, top concentration: 10,000 nM). The plates were incubated for 72 h in a 37° C. incubator with 5% CO2, and the number of viable cells in each well were measured indirectly by CellTiter 96® Aqueous One Solution Cell Proliferation Assay (Promega) This assay is a colorimetric method for determining the number of viable cells through measurement of their metabolic activity by detection of enzymatic conversion of tetrazolium salts into blue formazan derivatives. Reagent (20 μL) was added into each well, and the plates were returned to the incubator for 2 h. The absorbance in each well was then measured at 490 nm using an Envision plate reader (Perkin Elmer).

[2] = biological target: Her2 exon 20 YVMA insertion (A775_G776ins YVMA) (Homo sapiens (Human), UniProt P04626, INS775YVMA); experiment: Ba/F3-Her2 Exon20 YVMA cell anti-proliferative assay (CellTiter 96 MTS, 72 h); settings: Ba/F3-Her2 Exon20 YVMA cells
Chain of Her2 exon 20 YVMA insertion (A775_G776ins YVMA) (P04626 other isoform, or with tags, fused parts or gaps ins YVMA behind 775): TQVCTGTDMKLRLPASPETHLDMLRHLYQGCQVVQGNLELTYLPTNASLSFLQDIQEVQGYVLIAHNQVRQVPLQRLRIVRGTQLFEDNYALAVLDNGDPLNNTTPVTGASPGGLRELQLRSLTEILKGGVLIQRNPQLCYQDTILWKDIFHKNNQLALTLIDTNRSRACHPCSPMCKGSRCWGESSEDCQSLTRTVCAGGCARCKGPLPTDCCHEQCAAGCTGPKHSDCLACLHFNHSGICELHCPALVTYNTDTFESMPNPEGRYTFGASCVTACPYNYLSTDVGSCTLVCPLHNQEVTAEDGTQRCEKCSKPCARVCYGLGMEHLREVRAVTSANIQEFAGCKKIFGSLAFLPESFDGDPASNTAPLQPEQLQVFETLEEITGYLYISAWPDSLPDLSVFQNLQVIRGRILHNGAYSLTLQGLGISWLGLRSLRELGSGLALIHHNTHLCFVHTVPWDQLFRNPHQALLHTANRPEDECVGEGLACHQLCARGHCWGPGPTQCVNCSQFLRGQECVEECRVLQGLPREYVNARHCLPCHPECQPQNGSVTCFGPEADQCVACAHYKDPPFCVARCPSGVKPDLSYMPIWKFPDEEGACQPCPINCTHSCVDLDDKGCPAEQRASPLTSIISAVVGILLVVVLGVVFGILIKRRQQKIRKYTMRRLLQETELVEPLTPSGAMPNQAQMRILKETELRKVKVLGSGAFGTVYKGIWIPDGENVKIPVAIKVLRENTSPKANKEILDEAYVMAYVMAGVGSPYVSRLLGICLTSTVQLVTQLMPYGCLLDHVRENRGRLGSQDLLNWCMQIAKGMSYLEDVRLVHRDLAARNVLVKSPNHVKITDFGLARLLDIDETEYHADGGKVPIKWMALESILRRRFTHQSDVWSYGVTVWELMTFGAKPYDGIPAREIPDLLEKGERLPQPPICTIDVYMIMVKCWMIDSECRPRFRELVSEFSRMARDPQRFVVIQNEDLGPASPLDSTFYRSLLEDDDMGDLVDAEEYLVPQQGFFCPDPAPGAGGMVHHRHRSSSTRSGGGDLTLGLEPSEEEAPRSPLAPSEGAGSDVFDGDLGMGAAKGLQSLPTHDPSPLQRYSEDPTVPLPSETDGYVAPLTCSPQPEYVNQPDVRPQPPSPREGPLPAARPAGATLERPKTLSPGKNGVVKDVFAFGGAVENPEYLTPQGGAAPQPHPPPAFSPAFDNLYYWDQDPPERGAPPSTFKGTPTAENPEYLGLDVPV
Source text: Ba/F3 cells expressing Her2 Exon20 YVMA insertions (named Ba/F3-Her2 Exon20 YVMA) can proliferate in the absence of IL-3.

[3] = biological target: human EGFR E746-A750 deletion and T790M Mutation (DT) (Homo sapiens (Human), UniProt P00533, DEL746-750/T790M); experiment: Ba/F3-EGFR-Del/T790M cell anti-proliferative assay (CellTiter 96 MTS, 72 h); settings: Ba/F3-EGFR-Del/T790M cells; for IC50: read-out: EGFR exon 19 deletion and T790M mutation IC50
Chain of human EGFR E746-A750 deletion and T790M Mutation (DT) (P00533 other isoform, or with tags, fused parts or gaps T790M/del E746-A750): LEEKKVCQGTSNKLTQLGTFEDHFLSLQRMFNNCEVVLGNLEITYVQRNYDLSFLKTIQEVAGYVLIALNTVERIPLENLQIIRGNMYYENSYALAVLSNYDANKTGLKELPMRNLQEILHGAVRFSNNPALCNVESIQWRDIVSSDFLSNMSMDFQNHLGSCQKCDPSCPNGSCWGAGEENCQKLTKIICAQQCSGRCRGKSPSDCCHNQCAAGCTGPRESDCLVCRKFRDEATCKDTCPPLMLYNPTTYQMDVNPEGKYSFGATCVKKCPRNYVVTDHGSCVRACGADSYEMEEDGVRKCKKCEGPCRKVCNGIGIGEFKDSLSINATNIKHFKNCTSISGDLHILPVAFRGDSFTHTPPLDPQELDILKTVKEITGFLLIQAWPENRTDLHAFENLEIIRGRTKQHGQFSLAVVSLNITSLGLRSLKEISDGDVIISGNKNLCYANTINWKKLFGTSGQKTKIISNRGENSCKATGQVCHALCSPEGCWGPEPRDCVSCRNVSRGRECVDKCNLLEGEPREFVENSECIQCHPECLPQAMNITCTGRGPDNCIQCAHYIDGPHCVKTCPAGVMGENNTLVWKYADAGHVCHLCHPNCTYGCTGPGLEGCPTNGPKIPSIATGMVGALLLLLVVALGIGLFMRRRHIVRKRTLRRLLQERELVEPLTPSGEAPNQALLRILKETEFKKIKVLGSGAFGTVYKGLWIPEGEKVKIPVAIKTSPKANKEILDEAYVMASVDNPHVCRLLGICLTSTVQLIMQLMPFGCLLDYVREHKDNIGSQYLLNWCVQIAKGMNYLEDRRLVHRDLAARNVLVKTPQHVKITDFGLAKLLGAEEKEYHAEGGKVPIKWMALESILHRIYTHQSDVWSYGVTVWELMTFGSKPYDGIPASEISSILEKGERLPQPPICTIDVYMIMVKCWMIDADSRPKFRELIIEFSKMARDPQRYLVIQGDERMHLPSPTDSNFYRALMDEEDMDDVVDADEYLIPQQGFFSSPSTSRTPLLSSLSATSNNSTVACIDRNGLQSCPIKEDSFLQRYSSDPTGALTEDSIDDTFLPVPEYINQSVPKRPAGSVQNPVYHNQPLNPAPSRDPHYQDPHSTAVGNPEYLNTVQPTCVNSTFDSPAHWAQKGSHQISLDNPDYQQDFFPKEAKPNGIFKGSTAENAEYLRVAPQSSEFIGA

[4] = biological target: human EGFR L858R and T790M double mutation (LT) (Homo sapiens (Human), UniProt P00533, L858R/T790M); experiment: Ba/F3-EGFR L858R/T790M cell anti-proliferative assay (CellTiter 96 MTS, 72 h); settings: Ba/F3-EGFR L858R/T790M cells; for IC50: read-out: EGFR exon 21 L858R and T790M mutation IC50;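 for all read-outs here: Ba/F3 cells carrying the EGFR L858R/T790M double mutant are able to grow without IL-3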
Chain of human EGFR L858R and T790M double mutation (LT) (P00533 25-1210 T790M/L858R): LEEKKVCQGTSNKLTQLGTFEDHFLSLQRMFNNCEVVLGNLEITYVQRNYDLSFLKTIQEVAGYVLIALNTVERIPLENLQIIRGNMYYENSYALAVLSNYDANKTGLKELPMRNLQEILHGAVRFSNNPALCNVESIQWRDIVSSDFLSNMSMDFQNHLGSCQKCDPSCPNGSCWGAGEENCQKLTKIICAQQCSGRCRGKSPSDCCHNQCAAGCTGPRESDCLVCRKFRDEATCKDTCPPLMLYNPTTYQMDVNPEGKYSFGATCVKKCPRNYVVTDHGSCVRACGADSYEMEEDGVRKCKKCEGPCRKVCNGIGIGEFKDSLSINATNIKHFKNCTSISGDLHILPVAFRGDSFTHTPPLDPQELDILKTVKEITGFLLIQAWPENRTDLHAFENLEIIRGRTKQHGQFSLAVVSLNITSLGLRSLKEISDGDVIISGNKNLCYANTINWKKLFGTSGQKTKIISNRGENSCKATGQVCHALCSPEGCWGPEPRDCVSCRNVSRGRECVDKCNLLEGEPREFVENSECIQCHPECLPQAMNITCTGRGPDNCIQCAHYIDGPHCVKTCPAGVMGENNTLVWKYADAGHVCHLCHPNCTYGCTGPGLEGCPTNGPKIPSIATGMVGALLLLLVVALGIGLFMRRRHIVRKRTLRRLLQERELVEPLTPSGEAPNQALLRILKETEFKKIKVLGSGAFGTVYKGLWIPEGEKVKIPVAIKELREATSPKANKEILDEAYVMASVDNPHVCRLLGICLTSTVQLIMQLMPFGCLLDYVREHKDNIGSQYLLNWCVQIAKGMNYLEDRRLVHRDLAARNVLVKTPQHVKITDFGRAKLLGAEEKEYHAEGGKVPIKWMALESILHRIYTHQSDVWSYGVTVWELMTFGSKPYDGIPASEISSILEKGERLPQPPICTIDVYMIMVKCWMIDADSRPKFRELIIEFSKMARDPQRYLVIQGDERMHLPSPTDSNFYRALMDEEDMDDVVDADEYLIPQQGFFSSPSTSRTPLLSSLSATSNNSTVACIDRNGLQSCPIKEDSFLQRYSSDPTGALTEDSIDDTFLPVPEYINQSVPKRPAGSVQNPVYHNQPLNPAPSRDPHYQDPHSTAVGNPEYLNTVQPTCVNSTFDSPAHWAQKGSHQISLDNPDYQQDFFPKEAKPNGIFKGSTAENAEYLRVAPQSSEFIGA
Experimental: An expression vector, pLVX-IRES puro (Clontech) coding for human EGFR L858R and T790M double mutation, was transfected into HEK293 cells by the Trans-Lentiviral ORF Packaging System (Thermo Scientific), to produce virus encoding EGFR L858R and T790M double mutations. […] Ba/F3 cells expressing EGFR L858R and T790M double mutation (named Ba/F3-EGFR L858R/T790M) can proliferate in the absence of IL-3. The anti-proliferative activity of compounds was determined as follows: BaF3-EGFR L858R/T790M cells seeded in 96 well plates (2500 cells/well) were treated with test compound (dissolved in DMSO) at a series of concentrations (4-fold dilution, top concentration: 10,000 nM). The plates were incubated for 72 h in a 37° C. incubator with 5% CO2, and the number of viable cells in each well were measured indirectly by CellTiter 96® Aqueous One Solution Cell Proliferation Assay (Promega; this assay is a colorimetric method for determining the number of viable cells through measurement of their metabolic activity by detection of enzymatic conversion of tetrazolium salts into blue formazan derivatives). Reagent (20 μL) was added into each well, and the plates were returned to the incubator for 2 h. The absorbance in each well was then measured at 490 nm using an Envision plate reader (Perkin Elmer).

[5] = biological target: human EGFR exon 20 insertion ASV (V769_D770insASV) (Homo sapiens (Human), UniProt P00533, INS769ASV); experiment: Ba/F3-EGFR-Exon20-ASV cell anti-proliferative assay (CellTiter 96 MTS, 72 h); settings: Ba/F3-EGFR-Exon20-ASV cells;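 note: Ba/F3 cells bearing the EGFR exon 20 ASV insertion, a line able to proliferate without IL-3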

Chain of human EGFR exon 20 insertion NPG (H773_V774insNPG) (P00533 with tags, fused parts or gaps INS773NPG limits assumed): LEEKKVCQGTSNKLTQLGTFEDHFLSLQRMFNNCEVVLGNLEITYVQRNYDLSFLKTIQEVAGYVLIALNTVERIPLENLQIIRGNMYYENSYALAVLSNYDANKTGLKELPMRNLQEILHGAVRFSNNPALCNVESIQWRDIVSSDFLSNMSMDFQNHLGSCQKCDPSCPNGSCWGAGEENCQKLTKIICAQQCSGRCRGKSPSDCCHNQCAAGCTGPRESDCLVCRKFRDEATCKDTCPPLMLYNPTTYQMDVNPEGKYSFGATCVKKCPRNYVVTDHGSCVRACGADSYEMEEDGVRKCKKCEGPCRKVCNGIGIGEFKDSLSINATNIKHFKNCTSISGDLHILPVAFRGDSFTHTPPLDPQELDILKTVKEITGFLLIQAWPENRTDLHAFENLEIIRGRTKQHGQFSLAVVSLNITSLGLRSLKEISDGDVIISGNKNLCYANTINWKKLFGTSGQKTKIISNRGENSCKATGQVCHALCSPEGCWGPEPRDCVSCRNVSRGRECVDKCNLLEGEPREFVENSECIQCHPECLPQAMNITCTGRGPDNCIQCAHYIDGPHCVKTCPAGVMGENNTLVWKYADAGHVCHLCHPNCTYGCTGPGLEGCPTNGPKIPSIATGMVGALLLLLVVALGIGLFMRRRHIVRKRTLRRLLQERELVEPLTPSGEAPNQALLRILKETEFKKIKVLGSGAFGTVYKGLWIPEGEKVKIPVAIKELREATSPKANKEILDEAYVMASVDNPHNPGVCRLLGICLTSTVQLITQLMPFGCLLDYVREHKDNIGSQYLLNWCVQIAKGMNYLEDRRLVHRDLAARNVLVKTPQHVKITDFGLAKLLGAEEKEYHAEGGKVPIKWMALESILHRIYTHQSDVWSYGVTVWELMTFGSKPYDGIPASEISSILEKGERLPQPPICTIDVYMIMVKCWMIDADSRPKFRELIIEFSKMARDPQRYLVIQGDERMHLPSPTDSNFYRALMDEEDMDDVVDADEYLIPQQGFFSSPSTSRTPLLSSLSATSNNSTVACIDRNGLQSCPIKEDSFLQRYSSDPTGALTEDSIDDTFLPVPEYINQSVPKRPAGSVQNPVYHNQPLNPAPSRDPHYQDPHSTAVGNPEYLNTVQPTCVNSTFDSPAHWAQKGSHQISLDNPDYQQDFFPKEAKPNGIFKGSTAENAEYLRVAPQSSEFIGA

| SMILES | IC50 [1] | IC50 [2] | EGFR exon 19 deletion and T790M mutation IC50 [3] | EGFR exon 21 L858R and T790M mutation IC50 [4] | IC50 [5] | IC50 [3] | IC50 [4] |
| --- | --- | --- | --- | --- | --- | --- | --- |
| C=CC(=O)Nc1cc(Nc2nccc(-c3c(-c4ccc(OCc5ccccn5)c(Cl)c4)n(C)c4ccccc34)n2)c(OC)cc1N(C)CCN(C)C [Example 5, N-(5-((4-(2-(3-chloro-4-(pyridin-2-ylmethoxy)phenyl)-1-methyl-1H-indol-3-yl)pyrimidin-2-yl)amino)-2-((2-(dimethylamino)ethyl)(methyl)amino)-4-methoxyphenyl)acrylamide] | 100 to 500 nM | 100 to 500 nM | B (Group B compounds have an IC50 value for the indicated mutant between about 100 to about 500 nM) | B (Group B compounds have an IC50 value for the indicated mutant between about 100 to about 500 nM) | 100 to 500 nM |  |  |
| C=CC(=O)Nc1cc(Nc2nccc(-c3c(-c4ccccc4)n(C)c4ccccc34)n2)c(OC)cc1N(C)CCN(C)C [Example 7, N-(2-((2-(dimethylamino)ethyl)(methyl)amino)-4-methoxy-5-((4-(1-methyl-2-phenyl-1H-indol-3-yl)pyrimidin-2-yl)amino)phenyl)acrylamide] | < 100 nM | 100 to 500 nM |  |  | 100 to 500 nM | < 100 nM | < 100 nM |
| C=CC(=O)Nc1cc(Nc2ncc(C(=O)OCC)c(-c3cn(C)c4ccccc34)n2)c(OC)cc1N(C)CCN(C)C [Example 9, ethyl 2-((5-acrylamido-4-((2-(dimethylamino)ethyl)(methyl)amino)-2-methoxyphenyl)amino)-4-(1-methyl-1H-indol-3-yl)pyrimidine-5-carboxylate] | < 100 nM | < 100 nM |  |  | < 100 nM | < 100 nM | < 100 nM |
| C=CC(=O)Nc1cc(Nc2nccc(-c3cn(CC(N)=O)c4ccccc34)n2)c(OC)cc1N(C)CCN(C)C [Example 70, N-(5-((4-(1-(2-amino-2-oxoethyl)-1H-indol-3-yl)pyrimidin-2-yl)amino)-2-((2-(dimethylamino)ethyl)(methyl)amino)-4-methoxyphenyl)acrylamide] |  | 100 to 500 nM |  |  | < 100 nM | < 100 nM | < 100 nM |
| C=CC(=O)Nc1cc(Nc2ncc(CC)c(-c3cn(CC(N)=O)c4ccccc34)n2)c(OC)cc1N(C)CCN(C)C [Example 71, N-(5-((4-(1-(2-amino-2-oxoethyl)-1H-indol-3-yl)-5-ethylpyrimidin-2-yl)amino)-2-((2-(dimethylamino)ethyl)(methyl)amino)-4-methoxyphenyl)acrylamide] |  | 100 to 500 nM |  |  | < 100 nM | < 100 nM | < 100 nM |
| C=CC(=O)Nc1cc(Nc2ncc(CC)c(-c3cn(CC(=O)NC)c4ccccc34)n2)c(OC)cc1N(C)CCN(C)C [Example 72, N-(2-((2-(dimethylamino)ethyl)(methyl)amino)-5-((5-ethyl-4-(1-(2-(methylamino)-2-oxoethyl)-1H-indol-3-yl)pyrimidin-2-yl)amino)-4-methoxyphenyl)acrylamide] |  | 100 to 500 nM |  |  | < 100 nM | < 100 nM | < 100 nM |
| C=CC(=O)Nc1cc(Nc2nccc(-c3cn(C)c4cc(C(=O)OC(C)C)ccc34)n2)c(OC)cc1N(C)CCN(C)C [Example 84, isopropyl 3-(2-((5-acrylamido-4-((2-(dimethylamino)ethyl)(methyl)amino)-2-methoxyphenyl)amino)pyrimidin-4-yl)-1-methyl-1H-indole-6-carboxylate] |  | 500 to 1000 nM |  |  | 500 to 1000 nM | < 100 nM | < 100 nM |
| C=CC(=O)Nc1cc(Nc2nccc(-c3cn(C)c4c(C(=O)OC(C)C)cccc34)n2)c(OC)cc1N(C)CCN(C)C [Example 85, isopropyl 3-(2-((5-acrylamido-4-((2-(dimethylamino)ethyl)(methyl)amino)-2-methoxyphenyl)amino)pyrimidin-4-yl)-1-methyl-1H-indole-7-carboxylate] |  | 100 to 500 nM |  |  | 100 to 500 nM | < 100 nM | < 100 nM |
| C=CC(=O)Nc1cc(Nc2nccc(-c3c(C(=O)OC)n(C)c4ccccc34)n2)c(OC)cc1N(C)CCN(C)C [Example 86, methyl 3-(2-((5-acrylamido-4-((2-(dimethylamino)ethyl)(methyl)amino)-2-methoxyphenyl)amino)pyrimidin-4-yl)-1-methyl-1H-indole-2-carboxylate] |  | 500 to 1000 nM |  |  | < 100 nM | < 100 nM | < 100 nM |
| C=CC(=O)Nc1cc(Nc2nccc(-c3c(C#N)n(C)c4ccccc34)n2)c(OC)cc1N(C)CCN(C)C [Example 88, N-(5-((4-(2-cyano-1-methyl-1H-indol-3-yl)pyrimidin-2-yl)amino)-2-((2-(dimethylamino)ethyl)(methyl)amino)-4-methoxyphenyl)acrylamide] |  | 100 to 500 nM |  |  | < 100 nM | < 100 nM | < 100 nM |
| C=CC(=O)Nc1cc(Nc2nccc(-c3cn(C)c4cc(C#N)ccc34)n2)c(OC)cc1N(C)CCN(C)C [Example 89, N-(5-((4-(6-cyano-1-methyl-1H-indol-3-yl)pyrimidin-2-yl)amino)-2-((2-(dimethylamino)ethyl)(methyl)amino)-4-methoxyphenyl)acrylamide] |  | 100 to 500 nM |  |  | < 100 nM | < 100 nM | < 100 nM |
| C=CC(=O)Nc1cc(Nc2nccc(-c3c(C(N)=O)n(C)c4ccccc34)n2)c(OC)cc1N(C)CCN(C)C [Example 90, 3-(2-((5-acrylamido-4-((2-(dimethylamino)ethyl)(methyl)amino)-2-methoxyphenyl)amino)pyrimidin-4-yl)-1-methyl-1H-indole-2-carboxamide] |  | 500 to 1000 nM |  |  | 100 to 500 nM | < 100 nM | < 100 nM |
| C=CC(=O)Nc1cc(Nc2nccc(-c3c(C(=O)NC)n(C)c4ccccc34)n2)c(OC)cc1N(C)CCN(C)C [Example 91, 3-(2-((5-acrylamido-4-((2-(dimethylamino)ethyl)(methyl)amino)-2-methoxyphenyl)amino)pyrimidin-4-yl)-N,1-dimethyl-1H-indole-2-carboxamide] |  | 500 to 1000 nM |  | B (Group B compounds have an IC50 value for the indicated mutant between about 100 to about 500 nM) | 100 to 500 nM | < 100 nM |  |
| C=CC(=O)Nc1cc(Nc2nccc(-c3c(C(=O)N(C)C)n(C)c4ccccc34)n2)c(OC)cc1N(C)CCN(C)C [Example 92, 3-(2-((5-acrylamido-4-((2-(dimethylamino)ethyl)(methyl)amino)-2-methoxyphenyl)amino)pyrimidin-4-yl)-N,N,1-trimethyl-1H-indole-2-carboxamide] |  | 100 to 500 nM |  |  | < 100 nM | < 100 nM | < 100 nM |
| C=CC(=O)Nc1cc(Nc2nccc(-c3c(C(=O)NCCOC)n(C)c4ccccc34)n2)c(OC)cc1N(C)CCN(C)C [Example 93, 3-(2-((5-acrylamido-4-((2-(dimethylamino)ethyl)(methyl)amino)-2-methoxyphenyl)amino)pyrimidin-4-yl)-N-(2-methoxyethyl)-1-methyl-1H-indole-2-carboxamide] |  | > 1000 nM | B (Group B compounds have an IC50 value for the indicated mutant between about 100 to about 500 nM) | C (Group C compounds have an IC50 value for the indicated mutant between greater than about 500 to about 1 μM) | 500 to 1000 nM |  |  |
| C=CC(=O)Nc1cc(Nc2nccc(-c3cn(C)c4cc(-c5cnn(C)c5)ccc34)n2)c(OC)cc1N(C)CCN(C)C [Example 95, N-(2-((2-(dimethylamino)ethyl)(methyl)amino)-4-methoxy-5-((4-(1-methyl-6-(1-methyl-1H-pyrazol-4-yl)-1H-indol-3-yl)pyrimidin-2-yl)amino)phenyl)acrylamide] |  | 100 to 500 nM |  |  | < 100 nM | < 100 nM | < 100 nM |
| C=CC(=O)Nc1cc(Nc2ncc(P(C)(C)=O)c(-c3cn(C)c4ccccc34)n2)c(OC)cc1N(C)CCN(C)C [Example 96, N-(2-((2-(dimethylamino)ethyl)(methyl)amino)-5-((5-(dimethylphosphoryl)-4-(1-methyl-1H-indol-3-yl)pyrimidin-2-yl)amino)-4-methoxyphenyl)acrylamide] |  | > 1000 nM | B (Group B compounds have an IC50 value for the indicated mutant between about 100 to about 500 nM) | B (Group B compounds have an IC50 value for the indicated mutant between about 100 to about 500 nM) | > 1000 nM |  |  |
| C=CC(=O)Nc1cc(Nc2ncc(C#N)c(-c3nn(C)c4ccccc34)n2)c(OC)cc1N(C)CCN(C)C [Example 98, N-(5-((5-cyano-4-(1-methyl-1H-indazol-3-yl)pyrimidin-2-yl)amino)-2-((2-(dimethylamino)ethyl)(methyl)amino)-4-methoxyphenyl)acrylamide] | < 100 nM | < 100 nM |  |  | < 100 nM | < 100 nM |  |
| C=CC(=O)Nc1cc(Nc2ncc(NC(=O)NC)c(-c3cn(C)c4ccccc34)n2)c(OC)cc1N(C)CCN(C)C [Example 99, N-(2-((2-(dimethylamino)ethyl)(methyl)amino)-4-methoxy-5-((4-(1-methyl-1H-indol-3-yl)-5-(3-methylureido)pyrimidin-2-yl)amino)phenyl)acrylamide] |  | > 1000 nM |  |  | 500 to 1000 nM | > 1000 nM | > 1000 nM |
